In publication PMC12527173, “Cytotoxic, anti-inflammatory, antioxidant, and anti-glyoxalase-I evaluation of chelating substances: In silico and in vitro study” (PLOS One, 2025):
Read-outs that look alike come from different tables or passages of the source.

Assays:
[1] = tested on: A375 human skin cancer cell line; assay: SRB cytotoxicity assay, A375; type: cell-based; conditions: A-375, 72 h incubation, n = 12, read-out: Cytotoxicity (as of %Control) IC50 value A375 skin melanoma
How it was run: (§1)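 Viability is measured colorimetrically with sulforhodamine B after co-incubation with 5–200 μg/mL of test or reference compound. Data are plotted as percent of control optical density, and regression yields IC50.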

[2] = tested on: A549 lung cancer cell line; assay: SRB cytotoxicity assay, A549; type: cell-based; conditions: Homo sapiens, 72 h incubation, n = 12, read-out: Cytotoxicity (as of %Control) IC50 value A549 lung malignancy
How it was run: as §1

[3] = tested on: T47D breast cancer cell line; assay: SRB cytotoxicity assay, T47D; type: cell-based; conditions: Homo sapiens, 72 h incubation, n = 12, read-out: Cytotoxicity (as of %Control) IC50 value T47D mammary malignancy
How it was run: as §1

[4] = tested on: HeLa uterine cervix adenocarcinoma cell line; assay: SRB cytotoxicity assay, HeLa; type: cell-based; conditions: Homo sapiens, 72 h incubation, n = 12, read-out: Cytotoxicity (as of %Control) IC50 value Hela cervix malignancy
How it was run: as §1

[5] = tested on: SW620 colorectal cancer cell line; assay: SRB cytotoxicity assay, SW620; type: cell-based; conditions: Homo sapiens, SW-620, 72 h incubation, n = 12, read-out: Cytotoxicity (as of %Control) IC50 value SW620
How it was run: as §1

[6] = SRB cytotoxicity assay, normal PDL fibroblasts; type: cell-based; conditions: normal periodontal ligament (PDL) fibroblasts, 72 h incubation, 0.1–200 µM range, read-out: Cytotoxicity (as of %Control) IC50 value PDL fibroblasts
How it was run: as §1

[7] = tested on: CACO2 colorectal cancer cell line; assay: SRB cytotoxicity assay, CACO2; type: cell-based; conditions: Homo sapiens, Caco-2, 72 h incubation, n = 12, read-out: Cytotoxicity (as of %Control) IC50 value CACO2
How it was run: as §1

[8] = tested on: Breast cancer cell line MCF7; assay: SRB cytotoxicity assay, MCF7; type: cell-based; conditions: Homo sapiens, 72 h incubation, n = 12, read-out: Cytotoxicity (as of %Control) IC50 value MCF7 mammary malignancy
How it was run: as §1

[9] = tested on: HCT116 colorectal cancer cell line; assay: SRB cytotoxicity assay, HCT116; type: cell-based; conditions: Homo sapiens, HCT-116, 72 h incubation, n = 12, read-out: Cytotoxicity (as of %Control) IC50 value HCT116
How it was run: as §1

[10] = molecular target: T1, human recombinant Glo-I enzyme (rhGlo-I) (Homo sapiens, UniProt Q04760); assay: Glyoxalase-I (Glo-I) enzyme inhibition assay; type: biochemical; conditions: for Maximum (descriptive statistics of enzyme inhibition): highest mean inhibition over the tested concentrations; for Maximum (descriptive statistics of enzyme inhibition) / Minimum (descriptive statistics of enzyme inhibition): in % (unit assumed); for IC50: human recombinant Glo-I, triplicates, read-out: IC50 µM ± SD; for Minimum (descriptive statistics of enzyme inhibition): lowest mean inhibition over the tested concentrations
T1 construct: N-terminal Met and 6-His tag (N); purchased R&D Systems; host or cells: E. coli
T1 sequence (Q04760 2-184 limits assumed): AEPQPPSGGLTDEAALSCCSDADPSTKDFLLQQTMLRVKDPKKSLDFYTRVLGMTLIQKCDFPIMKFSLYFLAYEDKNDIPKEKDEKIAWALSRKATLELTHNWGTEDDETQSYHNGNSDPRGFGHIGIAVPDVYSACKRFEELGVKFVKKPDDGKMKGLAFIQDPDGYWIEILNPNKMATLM
Protocol: Solvents and chemicals were procured from Sigma-Aldrich Co. and Acros (ThermoFisher Scientific, New Jersey, USA). […] The enzyme was obtained from R&D Systems® Corporation in the USA. Synthetic compounds were tested for their inhibitory effects on the enzyme using a 10 mM DMSO stock concentration in triplicates. The manufacturer’s protocol from R & D Systems, Inc. in Minneapolis, MN, USA was followed for the in vitro experiments. The reconstituted Glo-I enzyme (0.5 mg/mL) was thawed after being stored at −70°C in sterile deionized water. […] The monitoring was done at a wavelength of 240 nm for 200 seconds at 37°C. The substrate mixture was freshly concocted with a concentration of 100 mM glutathione and 100 mM methylglyoxal (MG) in assay buffer containing 0.5 M sodium phosphate dibasic/monobasic. It was then left undisturbed at room temperature for 15 minutes […]. The selected compounds for investigation are subsequently produced in testing concentration ranges using a 0.1 M solution of sodium phosphate dibasic/monobasic with a pH range of 7–7.2. The blank contained an assay buffer with MG substrate. The test compounds were combined with human recombinant Glo-I (50 µM) in a 96-well plate to determine their kinetic behavior.

[11] = tested on: PANC1 pancreatic cell line; assay: SRB cytotoxicity assay, PANC1; type: cell-based; conditions: Homo sapiens, PANC-1, 72 h incubation, n = 12, read-out: Cytotoxicity (as of %Control) IC50 value PANC1
How it was run: as §1

[12] = tested on: Human PC3 prostate cancer cell line; assay: SRB cytotoxicity assay, PC3; type: cell-based; conditions: 72 h incubation, n = 12, read-out: Cytotoxicity (as of %Control) IC50 value PC3 prostate malignancy
How it was run: as §1

[13] = tested on: HT-29 colorectal cancer cell line; assay: SRB cytotoxicity assay, HT29; type: cell-based; conditions: Homo sapiens, 72 h incubation, n = 12, read-out: Cytotoxicity (as of %Control) IC50 value HT29
How it was run: as §1

[14] = read-out: Trial one (%inhibtion)
[15] = read-out: Trial three (%inhibtion)
[16] = read-out: Trial two (%inhibtion)

inhibition at 3.125 µM [10, 14] [%] | inhibition at 3.125 µM [10, 15] [%] | inhibition at 3.125 µM [10, 16] [%] | inhibition at 6.25 µM [10, 14] [%] | inhibition at 6.25 µM [10, 15] [%] | inhibition at 6.25 µM [10, 16] [%] | inhibition at 12.5 µM [10, 14] [%] | inhibition at 12.5 µM [10, 15] [%] | inhibition at 12.5 µM [10, 16] [%] | inhibition at 25 µM [10, 14] [%] | inhibition at 25 µM [10, 15] [%] | SMILES | IC50 [1] [µM] | IC50 [2] [µM] | IC50 [3] [µM] | IC50 [4] [µM] | IC50 [5] [µM] | IC50 at 72 h [6] [µM] | IC50 [7] [µM] | IC50 [8] [µM] | IC50 [9] [µM] | other results
12.3 | 20.4 | 19.4 | 28 | 36.3 | 39.7 | 54.2 | 56.5 | 60.9 | 78.1 | 80.9 | Cc1ccc(C(=O)c2cc(O)c(O)c([N+](=O)[O-])c2)cc1 [Tolcapone, reference compound] | 64.1 ± 1.1 | 62 ± 2.21 | 26.9 ± 0.35 | 39.35 ± 0.35 | 105 ± 8.35 | > 200 | 94.8 ± 6.65 | 25.6 ± 1.49 | 86.2 ± 6.6 | inhibition at 25 µM [10, 16]: 82.1%; inhibition at 50 µM [10, 14]: 96.1%; inhibition at 50 µM [10, 15]: 102%; inhibition at 50 µM [10, 16]: 97.6%; Maximum (descriptive statistics of enzyme inhibition) [10]: 98.66; IC50 [10]: 9.6 µM; Minimum (descriptive statistics of enzyme inhibition) [10]: 17.38; IC50 [11]: 119 ± 9.28 µM; IC50 [12]: 257 ± 37.1 µM; IC50 [13]: 63.3 ± 1.03 µM
13.2 | 7.44 | 2.77 | 22.3 | 14.2 | 16.5 | 29.4 | 24.7 | 25 | 39.7 | 33.7 | CC(/C=C/C(=O)NO)=C\[C@@H](C)C(=O)c1ccc(N(C)C)cc1 [Trichostatin A, reference compound] | 5.6 ± 0.6 | 2 ± 0.21 | 14.7 ± 0.28 | 1.4 ± 0.2 | 19.5 | > 200 | 27.1 ± 1.28 | 2.25 ± 0.49 | 14 ± 2.5 | inhibition at 25 µM [10, 16]: 38.4%; inhibition at 50 µM [10, 14]: 52.1%; inhibition at 50 µM [10, 15]: 38.8%; inhibition at 50 µM [10, 16]: 51.1%; Maximum (descriptive statistics of enzyme inhibition) [10]: 47.33; IC50 [10]: 43.5 ± 15.6 µM; Minimum (descriptive statistics of enzyme inhibition) [10]: 7.808; IC50 [11]: 95.8 ± 8.2 µM; IC50 [12]: 47.5 ± 3.96 µM; IC50 [13]: 27 ± 0.85 µM
